The format of data set [1] is physicochemical. As to the method:
Several degradation conditions were compared (i.e., organic vs. aqueous solutions in the presence or absence of acid and reducing agents) to determine the most favorable conditions (FIG. 11).
UV-Vis degradation. […] The samples were diluted to a final volume of 1 mL in H2O. A UV-Vis spectrum was taken from each sample with a Varian Cary 50 UV-Visible spectrophotometer (background correction, medium scan rate, 600-200 nm).

For another data set, the system named is cardiac tissue proteins. Put plainly: Surfactant-aided protein extraction from insoluble cardiac tissue pellet, SDS-PAGE and protein assay. As to conditions: 0.5% surfactant in 25 mM NH4HCO3; SDS-PAGE and Bradford protein assay (FIG. 16). As to the method:
Data presented were based on three independent experiments (n=3). Error bars represent standard error of the mean.
Protein extraction from cardiac tissue. The frozen tissue samples (˜500 mg) were cut into small pieces and washed with PBS buffer containing protease inhibitors and reducing agent (5 mM DTT, 1 mM PMSF, 1× protease inhibitor cocktail). […] The homogenate was centrifuged at 211,750×g using Beckman Ultracentrifuge and a Ti-80 rotor for 1 h. The supernatant after the first HEPES extraction was removed and saved as “E1” extraction. The HEPES extraction was repeated on the resulting pellet and saved as “E2”. After the second HEPES extraction, the tissue pellet was suspended in 25 mM NH4HCO3 and evenly divided into smaller aliquots. In one aliquot, 25 mM NH4HCO3 buffer with no surfactant (NS) was used in a 1:1 ratio (homogenate:buffer) and labeled as “E3”. In the other aliquots, surfactants (1% in 25 mM NH4HCO3) were individually added to the other aliquots in a 1:1 ratio (homogenate:surfactant) and labeled as “E3” following incubation and centrifugation.

In the case of 4-hexylphenylazosulfonate, in data set [1], the “degradation time upon UV irradiation” value is 30 to 150 s.
As for `CCCCCCCCCCC(OC(=O)NCCCS(=O)(=O)[O-])c1ccco1.[Na+]` (stereo not drawn) [PM], the protein solubilization ability entry in the data set on cardiac tissue proteins is recorded as “drastically better protein solubilization ability”.
On the same count and under the same terms, for `CCCCCCCCCCCC1(C)OCC(COCCCS(=O)(=O)[O-])O1.[Na+]` (stereo not drawn) [RG] the value was “drastically better protein solubilization ability”.

These data come from patent publication US11567085B2, “Photo-cleavable surfactants” (Wisconsin Alumni Research Foundation, priority 2018, dated 2023).
